Laboratory results taken from PMC11013284, “Chemoselective Synthesis and Anti-Kinetoplastidal Properties of 2,6-Diaryl-4H-tetrahydro-thiopyran-4-one S-Oxides: Their Interplay in a Cascade of Redox Reactions from Diarylideneacetones” (Molecules, 2024).
Like-named read-outs stand apart in the source and are kept apart here.

Legend:
[1] = test system: human diploid embryonic lung fibroblast hMRC-5SV2 cells; experiment: in vitro
Protocol: (§1) The cytotoxicity of compounds was evaluated toward human diploid embryonic lung fibroblast hMRC-5SV2 cells, derived from fetal lung tissue and first described in 1970. hMRC-5SV2 cells were cultured in 96-well plates with five concentrations of the compound (64, 16, 4, 1, and 0.25 μM). After 3 days of incubation, the cell viability was assessed fluorimetrically after the addition of resazurin, and fluorescence was measured (λex = 550 nm, λem = 590 nm). The results were expressed as a percentage reduction in cell growth/viability compared to control wells, and a 50% cytotoxic concentration (CC50) was calculated. The reference cytotoxic drugs were tamoxifen or ivermectin. Additionally, toxicity toward mouse macrophages was qualitatively observed. Three concentrations were included (64, 16, and 4 µM), and the range of toxicity was ranked from the least toxic to the most toxic compound.

[2] = test system: Trypanosoma cruzi (Tulahuen CL2 β-galactosidase) amastigotes in hMRC-5SV2 cells; experiment: T. cruzi intracellular amastigote assay (β-galactosidase/CPRG); type: cell-based; details: intracellular amastigotes, 7 days; for IC50: read-out: IC50 T. cruzi intramacrophage amastigotes (converted)
Protocol: A nifurtimox-sensitive strain (Tulahuen CL2 β-galactosidase) in human lung fibroblast hMRC-5SV2 cells was incubated for 7 days in 96-well plates with five concentrations of compound (64, 16, 4, 1, and 0.25 μM). The parasitic burden was evaluated through the activity of the enzyme β-galactosidase on a specific chlorophenol red ß-D-galactopyranoside (CPRG) substrate. Live parasites converted the yellow-orange CPRG substrate into the red chromophore chlorophenol red, yielding a dark-red solution, which could be quantitatively measured at 540 nm after 4 h of incubation at 37 °C. The results were expressed as a percentage reduction in parasite growth/viability compared to control wells, and an IC50 was calculated.

[3] = test system: L. infantum (MHOM/MA(BE)/67) amastigotes in primary peritoneal mouse macrophages; experiment: L. infantum intramacrophage amastigote assay (microscopic burden); type: cell-based, Leishmania infantum; details: 5 days, mouse macrophages as host
Protocol: L. infantum (MHOM/MA(BE)/67 strain) amastigote were incubated for 5 days in 96-well plates with five concentrations of compound (64, 16, 4, 1, and 0.25 μM). Primary peritoneal mouse macrophages were used as host cells. Parasite burdens (i.e., the number of amastigotes per macrophage) were microscopically assessed. The results were expressed as a percentage reduction in parasite burden compared to untreated control wells, and an IC50 was calculated.

[4] = test system: Trypanosoma brucei brucei trypomastigotes, suramin-sensitive strain (Squib 427); experiment: T. b. brucei growth/viability assay (resazurin); type: cell-based; details: 3 days
Protocol: After 3 days, parasite growth was assessed fluorimetrically following the addition of resazurin. After 24 h at 37 °C, fluorescence was measured (λex = 550 nm, λem = 590 nm). The results were expressed as a percentage reduction in parasite growth/viability compared to control wells, and a 50% inhibitory concentration (IC50) was calculated.

macrophages = details: bracketed value after the intramacrophage IC50 (Table S5); Table S6
[5] = test system: WT LV9 L. donovani intramacrophage amastigotes; experiment: L. donovani intramacrophage amastigote assay; type: cell-based, Leishmania donovani; details: WT LV9, ± SD in Tables S5/S6, read-out: IC50 L. donovani intramacrophage amastigotes
in vitro = details: human, CC50 hMRC-5 (cytotoxicity)
Protocol: as §1

[6] = Trypanosoma cruzi, TULAHUEN, 168 h
[7] = Leishmania infantum, Macrophage, 120 h

Row | SMILES | CC50 [1] [µM] | IC50 [2] [µM] | IC50 [3] [µM] | IC50 [4] [µM] | other results
1 | O=C1C[C@@H](c2ccc(F)cc2)S[C@@H](c2ccc(F)cc2)C1 [2’g] | 6.4 | 1.4 | 2.1 | 2.1 | –
2 | O=C(/C=C/c1ccccc1)/C=C/c1ccncc1 [1’o] | 2 | ≤ 0.2 | 0.5 | ≤ 0.2 | –
3 | O=C1CC(c2ccc(C(F)(F)F)cc2)SC(c2ccc(C(F)(F)F)cc2)C1 (racemic) [2r] | 10.2 | 2.5 | 32.5 | 0.5 | observed macrophage death / lysis observed at (macrophages): 200 µM; IC50 [5]: 68.6 ± 41.2 µM
4 | CN(C)c1ccc(/C=C/C(=O)/C=C/c2ccc(F)cn2)cc1 [1’q] | 32.2 | > 64 | 32.5 | 13.3 | –
5 | Cc1ccccc1/C=C/C(=O)/C=C/c1ccccc1C [1b] | > 64 | 51.7 | 8.1 | > 64 | observed macrophage death / lysis observed at (macrophages): > 37.5 µM; IC50 [5]: 11.9 ± 1.1 µM
6 | O=C(Cn1ccnc1[N+](=O)[O-])NCc1ccccc1 [benznidazole, reference compound] | – | – | – | – | IC50 [2, 6]: 1.93 µM
7 | COc1ccc(O)c(/C=C/C(=O)/C=C/c2cc(OC)ccc2O)c1 [1l] | – | – | – | – | CC50 at 3 days (in vitro): 1.9 µM; IC50 [2, 6]: 1 µM; IC50 [3, 7]: ≥ 32 µM; IC50 ([4]; Trypanosoma brucei, 72 h): ≤ 0.3 µM
8 | O=C1C[C@H](c2ccccn2)S[C@@H](c2ccccn2)C1 (racemic) [2w] | – | ≥ 64 | ≥ 64 | – | CC50 at 3 days (in vitro): > 64 µM; CC50 ([1]; human, 3 days): ≥ 64 µM; IC50 [2, 6]: > 64 µM; IC50 ([5]; Leishmania donovani): > 100 µM; IC50 [3, 7]: > 64 µM; IC50 ([4]; Trypanosoma brucei, 72 h): 26.1 µM
9 | O=C1C[C@@H](c2ccccc2Cl)S[C@@H](c2ccccc2Cl)C1 [2’e] | > 64 | 35 | > 64 | 37.6 | –
10 | Cc1ccc(C(=O)Nc2ccc(S(=O)(=O)O)c3cc(S(=O)(=O)O)cc(S(=O)(=O)O)c23)cc1NC(=O)c1cccc(NC(=O)Nc2cccc(C(=O)Nc3cc(C(=O)Nc4ccc(S(=O)(=O)O)c5cc(S(=O)(=O)O)cc(S(=O)(=O)O)c45)ccc3C)c2)c1 [Suramin, suramin, reference compound] | – | – | – | 0.03 | –
11 | N#Cc1ccc(C2CC(=O)CC(c3ccc(C#N)cc3)S2)cc1 (racemic) [2t] | > 64 | 42.5 | > 64 | 1.2 | observed macrophage death / lysis observed at (macrophages): > 100 µM; IC50 [5]: > 50 µM
12 | COc1ccc(C2CC(=O)CC(c3ccc(OC)cc3)[S+]2[O-])cc1 (mixture of isomers) [3d, (±)-trans-2,6-Di-(p-anisyl)-4H-tetrahydrothiopyran-4-one 1-oxide] | – | 8.9 | ≥ 64 | – | CC50 at 3 days (in vitro): 32.2 µM; IC50 [5]: 50.2 µM; IC50 ([4]; Trypanosoma brucei, 72 h): 3.1 µM
13 | O=C1CC(c2ccccn2)SC(c2ccccn2)C1 (stereo not shown) [2′w] | – | ≥ 64 | ≥ 64 | 29.1 | CC50 at 3 days (in vitro): > 64 µM; CC50 ([1]; human, 3 days): ≥ 64 µM; IC50 [2, 6]: > 64 µM; IC50 ([5]; Leishmania donovani): > 100 µM; IC50 [3, 7]: > 64 µM; IC50 ([4]; Trypanosoma brucei, 72 h): 29.6 µM
14 | N#Cc1ccc(/C=C/C(=O)/C=C/c2ccccc2)cc1 [1’l] | 38.7 | 3.3 | 7 | ≤ 0.2 | –
15 | CC/C(=C(\c1ccccc1)c1ccc(OCCN(C)C)cc1)c1ccccc1 [Tamoxifen, tamoxifen, reference compound] | – | – | – | – | CC50 at 3 days (in vitro): 9.12 µM
16 | CC1CS(=O)(=O)CCN1/N=C/c1ccc([N+](=O)[O-])o1 (stereo not shown) [Nifurtimox, nifurtimox, reference compound] | – | – | – | – | IC50 [2, 6]: 0.845 ± 0.2 µM

Row | SMILES | CC50 [1] [µM] | IC50 [2] [µM] | IC50 [3] [µM] | IC50 [4] [µM] | other results
17 | O=C(/C=C/c1ccccc1)/C=C/c1ccc(C(F)(F)F)cc1 [1’b] | > 64 | 33.8 | > 64 | 2.2 | –
18 | O=C(/C=C/c1ccccc1)/C=C/c1ncccn1 [1’r] | 1.6 | ≤ 0.2 | 0.4 | ≤ 0.2 | –
19 | CC(=O)Nc1ccc(C2CC(=O)CC(c3ccc(NC(C)=O)cc3)S2)cc1 (racemic) [2v] | > 64 | > 64 | > 64 | > 64 | observed macrophage death / lysis observed at (macrophages): > 100 µM; IC50 [5]: > 50 µM
20 | CC(=O)Nc1ccc(/C=C/C(=O)/C=C/c2ccc(NC(C)=O)cc2)cc1 [1v] | 34 | 10.2 | 8.1 | 0.5 | observed macrophage death / lysis observed at (macrophages): 100 µM; IC50 [5]: > 50 µM
21 | COc1cc(/C=C/C(=O)/C=C/c2ccc(O)c(OC)c2)ccc1O [1i] | 1.1 | 1 | ≥ 32 | ≤ 0.3 | –
22 | COc1ccc([C@H]2CC(=O)C[C@H](c3ccc(OC)cc3)S2)cc1 (relative stereo) [2d] | – | ≥ 64 | ≥ 64 | ≥ 64 | CC50 at 3 days (in vitro): > 64 µM; CC50 ([1]; human, 3 days): ≥ 64 µM; IC50 [2, 6]: > 64 µM; IC50 [3, 7]: > 64 µM; IC50 ([4]; Trypanosoma brucei, 72 h): > 64 µM
23 | COc1cc(Br)c(OC)c([C@@H]2CC(=O)C[C@H](c3cc(OC)cc(Br)c3OC)S2)c1 [2’q] | > 64 | 17.1 | 8.6 | 32.2 | –
24 | COc1ccc(C2CC(=O)CC(c3ccc(OC)cc3)[S+]2[O-])cc1 (stereo not drawn) [3′d, (anti)- and (syn)-cis-2,6-Di-(p-anisyl)-4H-tetrahydro-thiopyran-4-one 1-oxides] | – | ≥ 64 | ≥ 64 | 2.3 | CC50 ([1]; human, 3 days): ≥ 64 µM; IC50 T. cruzi intramacrophage amastigotes [2]: inactive; IC50 [5]: > 100 µM; IC50 L. infantum intramacrophage amastigotes [3]: inactive
25 | COc1cc([C@@H]2CC(=O)C[C@H](c3cc(OC)c(C)cc3OC)S2)c(OC)cc1C [2’o] | > 64 | 37.2 | 5.1 | 32.5 | –
26 | COc1ccc(C2CC(=O)CC(c3ccc(OC)cc3)S2)cc1 (stereo not shown) [2′d] | – | ≥ 64 | ≥ 64 | ≥ 64 | CC50 at 3 days (in vitro): > 64 µM; CC50 ([1]; human, 3 days): ≥ 64 µM; IC50 [2, 6]: > 64 µM; IC50 ([5]; Leishmania donovani): > 100 µM; IC50 [3, 7]: > 64 µM; IC50 ([4]; Trypanosoma brucei, 72 h): > 64 µM
27 | CCCCCCCCCCCCCCCCOP(=O)([O-])OCC[N+](C)(C)C [miltefosine, Hexadecyl-Phosphoryl-Choline, reference compound] | – | – | – | – | IC50 ([5]; Leishmania donovani): 19.1 ± 0.1 µM
28 | CN(C)c1ccc(/C=C/C(=O)/C=C/c2ccc(C(F)(F)F)cc2)cc1 [1’c] | > 64 | 31.7 | 8 | 9.2 | –
29 | CC[C@H](C)[C@H]1O[C@]2(CC[C@@H]1C)C[C@@H]1C[C@@H](C/C=C(\C)[C@@H](O[C@H]3C[C@H](OC)[C@@H](O[C@H]4C[C@H](OC)[C@@H](O)[C@H](C)O4)[C@H](C)O3)[C@@H](C)/C=C/C=C3\CO[C@@H]4[C@H](O)C(C)=C[C@@H](C(=O)O1)[C@]34O)O2 [ivermectine, ivermectin, reference compound] | – | – | – | – | CC50 ([1]; read-out: CC50 hMRC-5 (cytotoxicity), human hMRC-5SV2 fibroblasts, 3 days): 3.5 µM
30 | O=C(/C=C/c1ccccc1)/C=C/c1ccccn1 [1’n] | 1.5 | 0.5 | 1.3 | ≤ 0.2 | –
31 | C=CCOc1ccc(/C=C/C(=O)/C=C/c2ccc(OCC=C)c(OC)c2)cc1OC [1k] | > 64 | 36.9 | > 64 | 6.8 | –
32 | COc1ccc(/C=C/C(=O)/C=C/c2ccc(OC)cc2)cc1 [1d] | – | – | ≥ 64 | 1.24 | CC50 at 3 days (in vitro): > 64 µM; CC50 ([1]; human, 3 days): ≥ 64 µM; IC50 [2, 6]: 10.7 µM; IC50 [3, 7]: > 64 µM; IC50 ([4]; Trypanosoma brucei, 72 h): 1.2 µM
